Earlier results, collected in patent publication US20140010802A1, “SYSTEMS AND METHODS FOR DIAGNOSING A PREDISPOSITION TO DEVELOP CANCER” (University of Hawaii, Office of Technology Transfer and …, priority 2011, published 2014).

Tested on: MM patients
Details: phase 1 clinical trial, 3 MM patients

## Cc1c(CN2CCN(C(=O)[C@H](C)O)CC2)sc2c(N3CCOCC3)nc(-c3cnc(N)nc3)nc12 [GDC0980]
  anti-tumor effects in patients: anti-tumor effects
